Experimental findings from patent publication US20250304594A1, “METHYL (R)-2-(FLUOROMETHYL)-5-OXO-4-PHENYL-4,5,6,7-TETRAHYDRO-1H-CYCLOPENTA[B]PYRIDINE-3-CARBOXYLATE AND METHYL (R)-2-(FLUOROMETHYL)-5-OXO-4-PHENYL-1,4,5,7-TETRAHYDROFURO[3,4-B]PYRIDINE-3-CARBOXYLATE AS Cav1,2 ACTIVATORS” (Novartis AG, priority 2020, published 2025) are described below.

SMILES strings stand for the structures.

The test system of the assay is cFos mRNA. The assay can be described thus: cFos mRNA induction in cortex of wild-type mice (PK-PD). It is filed as in vivo, C57BL/6J male mice. The conditions noted are these: one hour after administration. The method, then: Assessment of Compound Exposure—cFos Induction (PK-PD) Relationship in Wild-Type Mice
Compound administration and brain tissue collection. Wild-type C57BL/6J male mice were obtained from Jackson laboratories (Bar Harbor, ME). The acute, single-dose effects of CaV1.2 activators of the present disclosure were evaluated in male eight-week old mice (n=6 mice per compound). Each compound was dissolved in 10% PEG300, 10% Solutol, 10% Cremophore EL, and 70% Phosphate Buffered Saline and administered intraperitoneal (i.p.) at a concentration of 1 mg/kg up to 30 mg/kg depending on the compound. Animals were euthanized one hour after compound administration via exsanguination under deep anesthesia. Blood was collected in EDTA tubes for downstream analysis of drug levels. Brains were rapidly removed from the skull, and the cerebral cortex and cerebellum were regionally dissected. Cerebellar samples were snap frozen in liquid nitrogen to assess compound exposure. Cortical samples for cFos assessment were placed in 500 μl of RNAlater solution (ThermoFisher) to preserve the integrity of RNA in the sample. Samples remained in RNAlater for at least 24 hours at 4° C. before moving to −80° C. for storage before processing.
Quantification of cFos mRNA induction. Tissue homogenization was performed using TissueLyser system for 96 well plates (Qiagen). First, frozen cortical samples were thawed, removed from RNAlater, and placed into TissueLyser tubes along with Buffer RLT containing 0.5% Reagent DX and one 5 mm TissueLyser metal bead. The TissueLyser tubes were loaded into a TissueLyser II tissue homogenizer for 3 rounds of homogenization, with each round lasting 5 minutes at 30 Hz bead-beating frequency. Total RNA was purified from the homogenate using RNeasy 96 Plus kit (Qiagen), RNA concentration and A260/A280 ratio were quantified via the Nanodrop (ThermoFisher), and all samples were normalized to 100 ng/μL concentration. RNA was reverse transcribed into cDNA using the Superscript III First-strand synthesis SuperMix Kit (ThermoFisher). For each sample, 6 μL of RNA (600 ng total) was mixed with 1 μL of Oligo dT and 1 μl of annealing buffer and heated to 65° C. for 5 minutes. Next, 10 μL of 2× First-Strand Reaction Mix and 2 μl of the Enzyme mix were added to achieve a total reaction volume of 20 μL. The samples were heated to 50° C. for 50 minutes then 85° C. for 5 minutes to complete cDNA synthesis.
Quantitative PCR was performed on the cDNA samples using Quantitect Multiplex RT-PCR kit (Qiagen) in a 384-well assay format. Each PCR well contained 2 μl of cDNA (60 ng total), 10 μL of RT-PCR mastermix, 1 μL of cFos FAM Taqman probe (Mm00487425_m1 (FAM) #4351368), 1 μL of GAPDH VIC Taqman probe (Mm99999915-g1 (VIC) #4448486), 0.2 μl of Multiplex RT mix and 5.8 μl of RNase-free water. On the ViiA7 Real-Time PCR system (ThermoFisher), the samples were heated to 95° C. for 15 minutes then cycled between 94° C. for 45 seconds and 60° C. for 45 seconds for 45 cycles. cFos Ct values were exported, normalized to GAPDH Ct values, and converted to relative fold change in expression using the delta-delta Ct relative quantification method. cFos fold changes between compound treatments and vehicle were analyzed by one-way ANOVA, followed by Tukey's post-hoc comparisons.

Take `COC(=O)C1=C(CF)NC2=C(C(=O)CC2)[C@H]1c1cccc(F)c1C1CC1` (single isomer, unassigned) [Example 28]: the “%↑cFOS mRNA cortex (3 mg/kg ip)” value came to 293%.

For the molecule `COC(=O)C1=C(CF)NC2=C(C(=O)OC2)[C@H]1c1cc(F)ccc1C(F)(F)F` (single isomer, unassigned) [Example 23], the “%↑cFOS mRNA cortex (3 mg/kg ip)” value amounted to 365%. Regarding `COC(=O)C1=C(CF)NC2=C(C(=O)OC2)[C@H]1c1cccc(F)c1[C@@H](C)F` (single isomer, unassigned) [Example 8], the “%↑cFOS mRNA cortex (3 mg/kg ip)” value came out at 496%.

Consider `COC(=O)C1=C(CF)NC2=C(C(=O)OC2)[C@H]1c1cc(F)cc(F)c1C1CC1` (single isomer, unassigned) [Example 13], for which the “%↑cFOS mRNA cortex (3 mg/kg ip)” value is reported as 225% and the “%↑cFOS mRNA cortex (10 mg/kg ip)” value worked out at 444%. For `COC(=O)C1=C(CF)NC2=C(C(=O)OC2)[C@H]1c1cc(F)cc(F)c1C(F)(F)F` (single isomer, unassigned) [Example 10], the “%↑cFOS mRNA cortex (3 mg/kg ip)” value worked out at 225%.

Consider `COC(=O)C1=C(CF)NC2=C(C(=O)OC2)[C@H]1c1cccc(F)c1[C@H](F)CF` (single isomer, unassigned) [Example 6], for which the “%↑cFOS mRNA cortex (3 mg/kg ip)” value is on record as 199%. Take `COC(=O)C1=C(CF)NC2=C(C(=O)OC2)[C@H]1c1cccc(F)c1CC(F)F` (single isomer, unassigned) [Example 11]: the “%↑cFOS mRNA cortex (3 mg/kg ip)” value is 160%. Still for that read-out and setting: for `COC(=O)C1=C(CF)NC2=C(C(=O)OC2)[C@H]1c1cccc(F)c1C1CC1` (single isomer, unassigned) [Example 2] the value was 378%; for `COC(=O)C1=C(CF)NC2=C(C(=O)OC2)[C@H]1c1cc(F)cc(F)c1[C@H]1CC1(F)F` (single isomer, unassigned) [Example 3, Methyl (R)-4-(2-((R or S)-2,2-difluorocyclopropyl)-3,5-difluorophenyl)-2-(fluoromethyl)-5-oxo-1,4,5,7-tetrahydrofuro[3,4-b]pyridine-3-carboxylate], 204%. As to `COC(=O)C1=C(CF)NC2=C(C(=O)OC2)[C@H]1c1cccc(F)c1C(F)F` (single isomer, unassigned) [Example 15], the “%↑cFOS mRNA cortex (3 mg/kg ip)” value is reported as 176% and the “%↑cFOS mRNA cortex (10 mg/kg ip)” value is 294%.

As to `COC(=O)C1=C(CF)NC2=C(C(=O)OC2)[C@H]1c1cc(F)cc(F)c1[C@H]1CC1(F)F` (single isomer, unassigned) [Example 4, Methyl (R)-4-(2-((R or S)-2,2-difluorocyclopropyl)-3,5-difluorophenyl)-2-(fluoromethyl)-5-oxo-1,4,5,7-tetrahydrofuro[3,4-b]pyridine-3-carboxylate], the “%↑cFOS mRNA cortex (3 mg/kg ip)” value stood at 161%. Turning to `COC(=O)C1=C(CF)NC2=C(C(=O)OC2)[C@H]1c1cc(F)cc(F)c1C(F)F` (single isomer, unassigned) [Example 18], the “%↑cFOS mRNA cortex (3 mg/kg ip)” value came out at 173% and the “%↑cFOS mRNA cortex (10 mg/kg ip)” value was determined as 280%. The matching figures for `COC(=O)C1=C(CF)NC2=C(C(=O)OC2)[C@H]1c1ccccc1OC(F)F` (single isomer, unassigned) [Example 9]: 290% and 525%.

Consider `COC(=O)C1=C(CF)NC2=C(C(=O)OC2)[C@H]1c1cccc(F)c1[C@H]1CC1(F)F` (single isomer, unassigned) [Example 1, methyl (R)-4-(2-((R or S)-2,2-difluorocyclopropyl)-3-fluorophenyl)-2-(fluoromethyl)-5-oxo-1,4,5,7-tetrahydrofuro[3,4-b]pyridine-3-carboxylate], for which the “%↑cFOS mRNA cortex (3 mg/kg ip)” value came out at 254%.

As to `COC(=O)C1=C(CF)NC2=C(C(=O)OC2)[C@H]1c1cc(F)cc(F)c1[C@H](F)CF` (single isomer, unassigned) [Example 16, methyl (R)-4-(2-((R or S)-1,2-difluoroethyl)-3,5-difluorophenyl)-2-(fluoromethyl)-5-oxo-1,4,5,7-tetrahydrofuro[3,4-b]pyridine-3-carboxylate], the “%↑cFOS mRNA cortex (3 mg/kg ip)” value was determined as 234%. Consider `COC(=O)C1=C(CF)NC2=C(C(=O)CC2)[C@H]1c1cccc(F)c1[C@@H](F)CF` (single isomer, unassigned) [Example 7, methyl (R)-4-(2-((R or S)-1,2-difluoroethyl)-3-fluorophenyl)-2-(fluoromethyl)-5-oxo-4,5,6,7-tetrahydro-1H-cyclopenta[b]pyridine-3-carboxylate], for which the “%↑cFOS mRNA cortex (3 mg/kg ip)” value is 262%. The same measure, in the same setting: the same measure for `COC(=O)C1=C(CF)NC2=C(C(=O)OC2)[C@H]1c1cc(F)cc(F)c1[C@H](C)F` (single isomer, unassigned) [Example 5, methyl (R)-4-(3,5-difluoro-2-((R or S)-1-fluoroethyl)phenyl)-2-(fluoromethyl)-5-oxo-1,4,5,7-tetrahydrofuro[3,4-b]pyridine-3-carboxylate]: 400%; for `COC(=O)C1=C(CF)NC2=C(C(=O)OC2)[C@H]1c1cccc(F)c1C(F)(F)F` (single isomer, unassigned) [Example 17]: 201%.
